Laboratory results published in patent publication US7498319B2, “Phosphinic acid derivatives” (Novartis AG, priority 2003, dated 2009).
Counter-ions that a name gives are not always drawn.

Key:
[1] = system: "epilepsy-like" discharges of pyramidal cells; assay: penicillin-induced "epileptic" hippocampus section preparation (electrophysiology); conditions: in vitro; concentration of 6 μM

Row | SMILES | melting point [°C] | effect on "epilepsy-like" discharges of pyramidal cells [1]
1 | O=c1cc(CNC[C@H](O)CP(=O)(O)Cc2ccccc2)cc[nH]1 (as salt: hydrochloride) [Example 10, {2-(S)-hydroxy-3-[(2-oxo-1,2-dihydro-pyridin-4-ylmethyl)-amino]-propyl}-(benzyl)-phosphinic acid] | 226 to 228 | –
2 | NCC(CC(=O)O)c1ccc(Cl)cc1 (stereo not shown) [baclofen] | – | inhibits
3 | COc1cc(CNC[C@H](O)CP(=O)(O)Cc2ccccc2)ccn1 [Example 4, {3-[(2-methoxy-4-pyridylmethyl)-amino]-2-(S)-hydroxy-propyl}-(benzyl)phosphinic acid] | 192 to 195 | –
4 | COc1cc(CNC[C@H](O)CP(=O)(O)CC2CCCCC2)ccn1 (as salt: hydrochloride) [Example 2, {3-[(2-methoxy-4-pyridylmethyl)-amino]-2-(S)-hydroxy-propyl}-(cyclohexylmethyl)-phosphinic acid] | 159 to 160 | –
